In data set [1] the test system is Anopheles gambiae larvae of resistant strain KdrKis. Kind of data set: Larval sensitivity test (WHO-certified cup test), KdrKis strain. It is filed as in vivo. The note with it: for LC10 - 24 hours / LC10 - 48 hours: KdrKis larvae, graphical projection from log-probit regression curves; for LC10 - 24 hours: 24 hours exposure; for LC10 - 48 hours: 48 hours exposure. As for the experimental part:
(§1) Methodology of the WHO-certified Test of the Sensitivity of Larvae to Insectivides and Repellents. The sensitivity to insecticides and repellents of the Anopheles gambia mosquito larvae of the sensitive Kis strain and of the resistant AcerKis and KdrKis strains, was determined using the larval sensitivity test (or WHO-certified cup test). The larvae, selected at the L3/L4 stages, were placed in cups containing 100 mL of osmosis water in the presence of the substance to be tested or only the solvent in the case of controls. Four cups of 25 larvae were exposed to one modality, for a total of 100 larvae. The mortality rate was observed 24 […] and 48 hours after exposure to the insecticide. The mortality rates presented herein were corrected for the mortality observed in the controls of each replicate according to the Abbott formula (Abbott, J. Econom. Entomol., 1925, 18: 265-267).

In data set [2] the test system is Anopheles gambiae larvae of resistant strain AcerKis. Kind of data set: Larval sensitivity test (cup test), AcerKis strain. The following applies: for LC10 - 24 hours / LC10 - 48 hours: AcerKis larvae, graphical projection from log-probit regression curves; for LC10 - 24 hours: 24 hours exposure; for LC10 - 48 hours: 48 hours exposure. It is filed as in vivo. As for the experimental part: Larval Testing Protocol. The larval sensitivity test or cup test, which was used in the present study, assesses the sensitivity of mosquito larvae to insecticides and repellents. The larvae were placed in cups containing 100 mL of osmosis water added with the substance to be tested or with only solvent in the case of the controls (see FIG. 3). Four containers (cups) of 25 larvae were exposed to one modality, for a total of 100 larvae. The mortality rate was observed 24 hours after exposure to the insecticide. The mosquitoes used were late L3/early L4 larvae (last larval stages) of Anopheles gambiae, sensitive Kis reference strain and a resistant strain AcerKis, grown in the MIVEGEC laboratory under standardized conditions.
as §1

As to `CN1COCN(Cc2cnc(Cl)s2)C1=N[N+](=O)[O-]` [Thiamethoxam, 3-[(2-Chloro-1,3-thiazol-5-yl)methyl]-5-methyl-N-nitro-1,3,5-oxadiazinan-4-imine], in data set [1], the “LC10 - 24 hours” value is 0.04 mg/L and the “LC10 - 48 hours” value was determined as 0.02 mg/L. Moreover, in data set [2], the “LC10 - 24 hours” value is recorded as 0.04 mg/L and the “LC10 - 48 hours” value was 0.01 mg/L.

As to `CCCCN(CCC(=O)OCC)C(C)=O` [IR3535, ethyl N-acetyl-N-butyl-β-alaninate], the “Mortality rate of larvae” value in data set [1] (KdrKis, IR3535 alone 1000 to 4000 mg/L, 24 and 48 hours) is on record as “less than 5%”; in data set [2] (AcerKis, IR3535 alone 1000 to 4000 mg/L, 24 and 48 hours) it was “less than 5%”.

`N#C/N=C1\SCCN1Cc1ccc(Cl)nc1` [Thiacloprid, {(2Z)-3-[(6-Chloropyridin-3-yl)methyl]-1,3-thiazolidin-2-ylidene}cyanamide]: in data set [1], the “LC10 - 24 hours” value was 0.02 mg/L and the “LC10 - 48 hours” value was 0.01 mg/L. In data set [2], the “LC10 - 24 hours” value is recorded as 0.02 mg/L and the “LC10 - 48 hours” value is 0.01 mg/L.
